Reference: patent US20140127827A1, “METHOD FOR DETECTION OF ANTIGEN USING FLUORESCENCE RESONANCE ENERGY TRANSFER IMMUNOASSAY” (priority 2012, published 2014)

Key:
Assay type in all cases: binding
anti-AFB1 antibody = conditions: pH 6
anti-AFB1 Fab = assay: FRET immunoassay using Fab fragment (anti-AFB1 Fab), incl. specificity to OTA
Description: Under the condition of 25 mM MEST buffer solution (pH 6.0), AFB1 of various concentrations (0, 0.1, 0.2, 0.5, 1, 2, 10, 20, 50 and 100 ng/mL) was reacted with anti-AFB1 Fab fragments having a constant concentration at room temperature for 20 minutes to obtain AFB1/anti-AFB1 Fab conjugates. The obtained AFB1/anti-AFB1 Fab conjugates were excited at 280 nm to obtain fluorescence spectra (FIG. 7). Referring to FIG. 7, it can be seen that, as the concentration of AFB1 increases, the fluorescence intensity at a wavelength of 350 nm decreases. Particularly, it can also be seen that sensitivity of FRET immunoassay using Fab fragments was much better than that of FRET immunoassay using an intact antibody of Example 1 (FIG. 8). Further, as a result of analysis by lowering the concentration of AFB1, it can be seen that approximately up to 0.09 ng/mL of AFB1 could be detected through FRET immunoassay using Fab fragments. This corresponds to a near 10-fold improvement in terms of sensitivity as compared to FRET immunoassay where an intact antibody of Example 1 was used. […]

anti-BaP = assay: FRET immunoassay for benzopyrene using antibodies (BaP/anti-BaP conjugate), incl. specificity to pyrene and DBA; conditions: same concentration as BaP (5 and 20 ng/mL), 10 mM NaHCO3 pH 9.0
Description: Under the condition of 10 mM NaHCO3 buffer solution (pH 9.0), BaPs having various concentrations (0, 0.1, 0.2, 0.5, 1, 2, 5, 10, 20 and 50 ng/mL) were reacted with antibodies having constant concentration at room temperature for 20 minutes to obtain BaP/anti-BaP conjugates. The obtained BaP/anti-BaP conjugates were excited at 280 nm to obtain a fluorescence spectrum (FIG. 18). Referring to FIGS. 18 and 19, it can be seen that, as the concentration of BaP increases, fluorescence intensity at a wavelength of 350 nm decreases, while fluorescence intensity at 435 nm increases at the same time.
Under the condition of 10 mM NaHCO3 buffer solution (pH 9.0), specificity of mouse IgG antibody (anti-Mouse IgG) to 5 ng/mL and 20 ng/mL BaP was investigated using FRET immunoassay. […] Further, specificity of anti-BaP to pyrene and dibenz[a,h]anthracene (DBA) having the same concentration as BaP was investigated.

anti-NPT = assay: FRET immunoassay for neopterin using antibodies (NPT/anti-NPT conjugate), incl. specificity to BPT; conditions: 10 mM NaHCO3 pH 9.0
Description: Under the condition of 10 mM NaHCO3 buffer solution (pH 9.0), NPT of various concentrations (0 ng/mL, 0.2 ng/mL, 2 ng/mL and 20 ng/mL) was reacted with antibodies having a constant concentration at room temperature for 20 minutes to obtain NPT/anti-NPT conjugates. The obtained NPT/anti-NPT conjugates were excited at 280 nm to obtain fluorescence spectra (FIG. 14). Referring to FIG. 14, it can be seen that, as the concentration of NPT increases, the fluorescence intensity at a wavelength of 350 nm decreases.
Under the condition of 10 mM NaHCO3 buffer solution (pH 9.0), specificity of mouse IgG antibody (anti-Mouse IgG), IFN-γ antibody (anti-IFN-γ) and CRP antibody (anti-CRP) to 2 ng/mL and 20 ng/mL of NPT was investigated using FRET immunoassay. […] Further, specificity of anti-NPT with BPT having the same concentration as NPT was investigated.

anti-OTA antibody = assay: FRET immunoassay using an intact antibody (OTA/anti-OTA conjugate); conditions: 0, 10, 100 ng/mL; 25 mM MEST pH 6.0; excitation 280 nm
Description: (§1) Using 25 mM MEST buffer solution (containing 0.3% Tween 20 in MES buffer solution, pH 6.0), mycotoxins of various concentrations (0 ng/mL, 10 ng/mL and 100 ng/mL) were reacted with antibodies having a constant concentration at room temperature for 20 minutes to obtain mycotoxin/antibody conjugates (AFB1/anti-AFB1 conjugate, OTA/anti-OTA conjugate, and ZEN/anti-ZEN conjugate). The obtained mycotoxin/antibody conjugates were excited at 280 nm to obtain fluorescence spectra (FIG. 4). Referring to FIG. 4, it can be seen that, as the concentration of mycotoxins (AFB1, OTA and ZEN) increases, the fluorescence intensity at a wavelength of 350 nm decreases.

anti-ZEN antibody = assay: FRET immunoassay using an intact antibody (ZEN/anti-ZEN conjugate); conditions: 0, 10, 100 ng/mL; 25 mM MEST pH 6.0; excitation 280 nm
Description: as §1

COc1cc2c(c3oc(=O)c4c(c13)CCC4=O)[C@@H]1C=CO[C@@H]1O2 [AFB1, aflatoxin]
fluorescence intensity at 350 nm as concentration increases (anti-AFB1 antibody): decreases | fluorescence intensity at 350 nm as concentration increases (anti-AFB1 Fab; pH 6): decreases

c1ccc2c(c1)ccc1cc3c(ccc4ccccc43)cc12 [DBA, dibenz[a,h]anthracene]
binding to anti-BaP (specificity) (anti-BaP): a little antigen/antibody binding

Nc1nc2ncc([C@H](O)[C@H](O)CO)nc2c(=O)[nH]1 [NPT, neopterin]
fluorescence intensity at 350 nm as concentration increases (anti-NPT; 0, 0.2, 2, 20 ng/mL NPT, excitation 280 nm): decreases

C[C@@H]1Cc2c(Cl)cc(C(=O)N[C@@H](Cc3ccccc3)C(=O)O)c(O)c2C(=O)O1 [OTA, ochratoxin A]
fluorescence intensity at 350 nm as concentration increases (anti-OTA antibody): decreases | binding to anti-AFB1 Fab (specificity) (anti-AFB1 Fab; OTA at same concentration as AFB1 (10 and 50 ng/mL), MEST buffer pH 6.0): no antigen/antibody binding

C[C@H]1CCCC(=O)CCC/C=C/c2cc(O)cc(O)c2C(=O)O1 [ZEN, zearalenone]
fluorescence intensity at 350 nm as concentration increases (anti-ZEN antibody): decreases

c1cc2ccc3cccc4ccc(c1)c2c34 [pyrene]
binding to anti-BaP (specificity) (anti-BaP): a little antigen/antibody binding

biopterin [BPT]
binding to anti-NPT (specificity) (anti-NPT; BPT at same concentration as NPT (2 and 20 ng/mL)): no antigen/antibody binding
